Entries after “also recorded” stand apart in the source; their conditions may differ.
Tested on: thymic tissue
Test: Thymic apoptosis in microgravity culture (RCCS bioreactor), TUNEL assay
Assay type: cell-based, Lewis rats
Details: for Percent Area of Stain: 1 μM dexamethasone in culture media, microgravity bioreactor, 37° C.; for Ratio DEX/CON (Percent Area of Stain): 1 μM dexamethasone vs control media
Method: The following media and solutions were prepared:
1. Phosphate buffered saline (PBS) for rinsing tissue.
2. Control media, consisting of RPMi 1640 containing 15% heat-inactivated fetal bovine serum, 100 μg/mL penicillin, 100 μg/mL streptomycin, 100 μg/mL L-glutamine, and 2.5 μg/mL amphotericin B.
3. Experimental media, consisting of control media containing 1 μM dexamethasone.
Two microgravity bioreactors (Synthecon, Inc., Houston Tex.) were utilized; one containing control media and one containing experimental media.
The thymus was removed from two Lewis rats, washed in cold PBS to remove blood, and stripped of excess tissue. Thymus tissue was cut into sections of about 3 mm^3, while in cold media.
The bioreactors were filled with control (CON) or experimental (DEX) media. Approximately 24 thymus pieces were placed in each bioreactor, for incubation at 37° C. at a rotation speed appropriate for the size of tissue piece and sedimentation rate, in order to provide constant free-fall. Tissue pieces were removed from each bioreactor every half hour for the first 3 hours, then every hour to the sixth hour, then at hour 10 and hour 24.
Tissue was fixed in 10% neutral buffered formalin or Histochoice™ (Amresco, Inc., Solon Ohio), processed to paraffin and sectioned for histochemical analysis. Formalin-fixed sections were stained with hematoxylin and eosin. Immunohistochemical staining for Lewis Y expression was performed with Histochoice TM fixed samples on a DAKO autostainer, using a monoclonal mouse anti-human Lewis γ antibody (DAKO, Carpinteria Calif.). A peroxidase labeled streptavidin-biotin detection system (Zymed, So. San Francisco Calif.) and diaminobenzidine (DAB) chromagen were used.
In situ labeling of apoptosis was measured by terminal deoxynucleotidyl transferase mediated dUTP nick end labeling (TUNEL) method with a cell death detection kit (Boehringer Mannheim Gmbh, Mannheim, Germany). Using digital image analysis, immunostained sections were analyzed for intensity stain index (ISI=[ΣP0×I0]/total tissue area in pixels), where P0=number of pixels at each intensity and I0=the intensity units (Doolin et al., J. Surg. Res. 59: 191-197, 1995). TUNEL was quantified as total apoptotic cell number divided by total tissue area.

In the case of C[C@@H]1C[C@H]2[C@@H]3CCC4=CC(=O)C=C[C@]4(C)[C@@]3(F)[C@@H](O)C[C@]2(C)[C@@]1(O)C(=O)CO [DEX, dexamethasone], the “Percent Area of Stain” value (time 0 hours) is reported as 6.04%, the “Percent Area of Stain” value (time 3 hours) is reported as 21.68% and the “Percent Area of Stain” value (time 6 hours) is reported as 33.29%. The “Percent Area of Stain” value (time 10 hours) was 43.82%, the “Percent Area of Stain” value (time 24 hours) was 43.30% and the “Effect on rate of apoptosis of thymic tissue” value (1 μM dexamethasone in culture medium, RCCS bioreactor, compared with control culture) was “increases the rate of apoptosis; also recorded: increased the rate of apoptosis up to 10 hours post-initiation”. For the same compound, the “Ratio DEX/CON (Percent Area of Stain)” value (time 0 hours) was 1.00, the “Ratio DEX/CON (Percent Area of Stain)” value (time 3 hours) was 1.46 and the “Ratio DEX/CON (Percent Area of Stain)” value (time 6 hours) was 1.58. The “Ratio DEX/CON (Percent Area of Stain)” value (time 10 hours) was 1.37, the “Ratio DEX/CON (Percent Area of Stain)” value (time 24 hours) was 0.87 and the “Time to maximum level of apoptosis, as measured by TUNEL” value (thymic tissue in RCCS bioreactor in the presence of dexamethasone (24 hours without)) was 10 h.

Reference: patent publication US20030017462A1, “Control samples for use as standards for evaluating apoptosis in a selected tissue” (priority 2001, published 2003)
